Reference: patent publication US20080200424A1, “Preparation for Treating Cancer” (priority 2004, published 2008)

How the values were obtained:
[1] = tested on: SCC9; assay: Efficacy against head and neck tumour cell line SCC9; assay type: cell-based; details: substance alone, treatment period of 72 hours (FIG. 1)
Excerpt: (§1) The biological activity of 7β-hydroxycholesterol and caroverin alone and also combined with each other was investigated. The efficacy was checked using the head and neck tumour cell lines SCC9 and SCC25.

[2] = tested on: SCC25; assay: Efficacy against head and neck tumour cell line SCC25; assay type: cell-based; details: substance alone, treatment period of 72 hours (FIG. 1)
Excerpt: as §1

[3] = tested on: head and neck tumour cell lines SCC9 and SCC25; assay: Efficacy on tumour cells, cell line not given (cisplatin combinations, best concentration, proliferation); assay type: cell-based; details: combined with cisplatin (FIG. 2, FIG. 5); 7β-hydroxycholesterol in small doses
Excerpt: as §1

[4] = tested on: healthy cells; details: does not attack healthy cells; cited from earlier work

| SMILES | efficacy against cell line [1] | efficacy against cell line [2] | synergistic effect combined with cisplatin [3] | toxicity [4] |
| --- | --- | --- | --- | --- |
| CC(C)CCC[C@@H](C)[C@H]1CC[C@H]2[C@@H]3[C@@H](O)C=C4C[C@@H](O)CC[C@]4(C)[C@H]3CC[C@]12C [7β-hydroxycholesterol] | effective | effective | synergistic effect | completely non-toxic |
| CCN(CC)CCn1c(=O)c(Cc2ccc(OC)cc2)nc2ccccc21 [caroverin, 1-diethylaminoethyl-3-(p-methoxybenzyl)-1,2-dihydro-quinoxalin-2-one, reference compound] | – | – | could not be proved | – |
